Legend:
[1] = tested on: A549 cells; experiment: Flow cytometry detection of the efficiency of nucleic acid delivery by lipid; format: cell-based, human; details: boiling method, 6 hours co-incubation
Method: Experimental materials: A549 cells (purchased from the Cell Center of the Chinese Academy of Medical Sciences), FAM-sRNA (purchased from Ribobio Biotechnology Co., Ltd.), lipid No. 41, Accuri® C6 instrument (purchased from BD, USA).
Experimental methods: PGY-sRNA-6-FAM was dissolved in 100 μl water, mixed with 4 μl lipid, and prepared by boiling method. Then the mixture was dropped into A549 cells, and after 6 hours of co-incubation, the samples were collected for detection as follows: firstly wash three times with PBS, then digest with trypsin for 3 minutes and remove trypsin, wash with PBS again and then blow down the cells. The detection was performed using Accuri® C6 instrument.
Experimental Method: PGY-sRNA-6-FAM was dissolved in 100 μl water, and mixed with 4 μl lipid, and prepared into lipid-sRNA mixture by boiling method. Then, the mixture was dropped into A549 cells, and after 6 hours of co-incubation, the samples were collected and washed three times with PBS, then digested with trypsin into single cells, washed with re-suspended with PBS and then blown down for Accuri® C6 instrument detection.
Experimental Method: FAM-sRNA was dissolved in 100 μl water, and mixed with 4 μl lipid, prepared by boiling method. Then, the lipid-sRNA mixture was dropped into A549 cells, and after 6 hours of co-incubation, the samples were collected and washed three times with PBS, then digested into single cells with trypsin, re-suspended with PBS and then blown down for Accuri® C6 instrument detection.

[2] = tested on: A549 cell (human lung adenocarcinoma cell); experiment: In vitro delivery of lipid nucleic acid mixture, RT-qPCR of intracellular small RNA; format: cell-based; details: for delivery effect relative to that of RNAiMAX (real-time PCR): double-stranded HJT-sRNA-m7; for delivery of HJT-sRNA-m7 double-stranded RNA into A549 cells (real-time PCR): single lipid prepared by boiling or reverse evaporation method, RNA 100 nM, FIGS. 76, 91, 96, 99, 104, 106, 107; for delivery of HJT-sRNA-m7 single-stranded RNA into A549 cells (real-time PCR): single lipid, FIGS. 78, 92, 103; for abundance of sRNA of different sequences in the cells (Taqman probe): FIG. 11A-C, sRNA 200 nM, 3 hours, compared with the control
Method: 3.1 NCI-N87 cell (gastric cancer cell), MRC-5 cell (lung fibroblast), A549 cell (lung cancer cell) were cultured to logarithmic growth phase, and then plated to a six-well plate at cell density of 1×10^6/2 mL medium/well; MRC-5 cell was cultured in Eagle's MEM medium (MEM, Gibco); A549 cell was cultured in Ham's F-12 medium (HyClone); NCI-N87 cell was cultured in RPMI-1640 medium (HyClone); followed by incubation overnight at 37° C., and the follow-up experiments were performed after the cells were attached to the walls.
3.3 After co-incubation with the small RNA for 3 hours, the cells were washed 2-3 times with PBS. The cells were harvested with TRIzol lysis buffer, and the total RNA was extracted. The abundance of small RNA that entered cells was detected by RT-qPCR, and the localization of RNA was detected by fluorescence in situ hybridization; protocols of each detection method were as follows:
1) The sRNA was reverse transcribed to cDNA: Reverse Transcription Kit (High-Capacity cDNA Reverse Transcription Kits, Applied Biosystems, cat. No. 4368813) was used to reverse transcribe sRNA into cDNA by stem-loop method, and the reverse transcription system was as follows: RNA template (150 ng/μl) 10 μl, 10×RT buffer, 2.0 μl, 25× dNTP Mix (100 mM) 0.8 μl, U6 RT stem-loop primer 2.0 μl, HJT-sRNA-RT-m7 stem-loop primer 2.0 μl, MultiScribe™ reverse transcriptase 1.0 μl, RNase inhibitor 1.0 μl, nuclease-free H2O 1.2 μl, loaded into a PCR reactor after brief centrifugation, the reaction conditions were as follows: (1) 25° C., 10 min; (2) 37° C., 120 min; (3) 85° C., 5 min; (4) 4° C., termination of the reaction. 20 μl RNase-free ddH2O was added to make up the final volume to 40 μl after the reaction. The stem-loop primer used in the reverse transcription process was synthesized by Beijing Tsingke Biotechnology Co., Ltd.
2) Quantitative PCR amplification reaction: the qPCR reaction system has a total volume of 10 μl, containing: 5 μL 2×SYBR Green Master Mix, 0.5 μl forward primer ([…]), 0.5 μl reverse primer (10 μM), 1 μl cDNA by reverse transcription, 3 RNase-free dH2O. LightCycler 480 fluorescence quantitative PCR instrument was used, and the PCR reaction conditions were: 95° C. for 5 min for pre-denaturation, followed by PCR amplification cycle: (1) 95° C., 10 s; (2) 55° C., 10 s; (3) 72° C. , 20 s; a total of 40 cycles; 40° C. for 10 s in the end to cool down. Both the forward and reverse primers of the amplification reaction were designed and synthesized by Beijing Tsingke Biotechnology Co., Ltd.
3) The relative expression level was calculated by 2-ΔCt method.
100 μl lipid in diethyl ether solution was prepared, and grouped according to the lipid numbers shown in Table 1 (the lipid concentrations are shown in the table below). To the lipid solution was added 20 μl nucleic acid solution (HJT sRNA or siRNA) at the volume ratio of 5:1, and sonicated for after 3 min. The diethyl ether was removed by evaporation at 55° C., and then 100 μl DEPC water was added for hydration to give nucleic acid lipid mixture.
100 μL of the nucleic acid solution (HJT sRNA or siRNA) was added to 2-5 μL of the lipid in chloroform (the concentration was shown in Table 1), mixed, and heated at 80-100° C. for 15-30 min to give nucleic acid lipid mixture.
3.1.1 MRC-5 cell (pulmonary embryonic fibroblast), A549 cell (human lung adenocarcinoma cell), Caco-2 cell (human colon adenocarcinoma cell) (purchased from the Cell Resource Center of the Institute of Basic Medical Sciences, Chinese Academy of Medical Sciences) were cultured to logarithmic growth phase, then plated into 12-well plates at a cell density of 6×10^5/1 mL medium/well; MRC-5 and Caco-2 cells were cultured in Eagle's MEM medium (MEM, Gibco); A549 cells were cultured in Ham's F-12 medium (HyClone); followed by incubation overnight at 37° C., and the follow-up experiments were performed after the cells were attached to the walls. […]

[3] = tested on: A549 cells; experiment: Confocal fluorescence microscopy of nucleic acid delivered by lipid; format: cell-based, human; details: boiling method, 4 μl lipid, 6 hours co-incubation
Method: Experimental materials: A549 cells (purchased from the Cell Center of the Chinese Academy of Medical Sciences), PGY-sRNA-6-Cy3 (purchased from Ribobio Biotechnology Co., Ltd.), lipid No. 41, Zeiss LSM780 (purchased from Zeiss, Germany), Alexa Fluor® 488 phalloidin (purchased from Invitrogen, USA), DAPI (purchased from Invitrogen, USA), paraformaldehyde (purchased from sigma, USA).
(§1) Experimental methods: PGY-sRNA-6-FAM was dissolved in 100 μl water, mixed with 4 μl lipid, and prepared by the boiling method. Then the mixture was dropped into A549 cells, and after 6 hours of co-incubation, the samples were washed three times with PBS, fixed with 4% paraformaldehyde, washed three times with PBS, stained with Alexa Fluor® 488 phalloidin for 30 min, washed 3 times with PBS, and stained with DAPI for 5 min, washed with PBS, and then sealed.
as §1, with “method:” for “methods:”, “water, and” for “water,”, “by” for “by the”, “Then,” for “Then”, “PBS washed,” for “washed with PBS,”

| SMILES | efficiency of PGY-sRNA-6 single-stranded RNA delivery relative to positive control RNAiMAX (flow cytometry) [1] | delivery effect relative to that of RNAiMAX (real-time PCR) ([2]; boiling method) | delivery of HJT-sRNA-m7 double-stranded RNA into A549 cells (real-time PCR) [2] | entry of PGY-sRNA-6-Cy3 observed under confocal microscopy [3] | efficiency in delivering PGY-sRNA-6 double-stranded RNA (flow cytometry) ([1]; 4 μl lipid) [%] | efficiency in delivering PGY-sRNA-6 single-stranded RNA (flow cytometry) ([1]; 4 μl lipid) [%] | delivery effect relative to that of RNAiMAX (real-time PCR) ([2]; reverse evaporation method) | delivery of HJT-sRNA-m7 single-stranded RNA into A549 cells (real-time PCR) ([2]; boiling method) | abundance of sRNA of different sequences in the cells (Taqman probe) ([2]; reverse evaporation method) |
| --- | --- | --- | --- | --- | --- | --- | --- | --- | --- |
| CCCCCCCC/C=C\CCCCCCCCCCCCCC(=O)O[C@H](COC(=O)CCCCCCCCCCCCCC)COP(=O)(O)OCCN [No. 64, 1-pentadecanoyl-2-nervonoyl-sn-glycero-3-phospho-ethanolamine] | ½ | about 3 times that of RNAiMAX | delivered HJT-sRNA-m7 double-stranded RNA into A549 cells | could effectively deliver single-stranded RNA into A549 cells | – | – | – | – | – |
| CCCCCCCCCCCCCCCCCCC[C@@H](O)[C@@H](N)CO [No. 41, Sphinganine (d22:0)] | – | about twice | delivered HJT-sRNA-m7 double-stranded RNA into A549 cells | could effectively deliver double-stranded nucleic acid into A549 cells | 96.7 | 94.1 | significantly higher than that of RNAiMAX | delivered HJT-sRNA-m7 single-stranded RNA into A549 and MRC-5 cells | – |
| CCCCCCCC/C=C\CCCCCCCCCCCC(=O)O[C@H](COC(=O)CCCCCCCCCCCCCCC)COP(=O)(O)OCCN [No. 40, (2-aminoethoxy) [(2R)-2-[(13Z)-docos-13-enoyloxy]-3-(hexadecanoyloxy)propoxy] phosphinic acid] | – | – | delivered double-stranded RNA into A549 cells | could effectively deliver single-stranded RNA into A549 cells | – | – | ½ | – | – |
| CCCCC/C=C\C/C=C\CCCCCCCC(=O)O[C@H](COC(=O)CCCCCCCCCCCCCCC)COP(=O)([O-])OCC[N+](C)(C)C [No. 12, (2-{[(2R)-3-(hexadecanoyloxy)-2-[(9Z,12Z)-octadeca-9,12-dienoyloxy]propylphosphonato]oxy}ethyl) trimethylazanium] | – | – | – | – | – | – | – | – | could effectively facilitate nucleic acid molecules of different sequences entry into various cells |
| CCCCCC/C=C\CCCCCCCC(=O)O[C@H](COC(=O)CCCCCCCCCCCCCCC)COP(=O)(O)OCCN [No. 38, (2-aminoethoxy) [(2R)-2-[(9Z)-hexadec-9-enoyloxy]-3-(hexadecanoyloxy)propoxy] phosphinic acid] | close to that of the positive control RNAiMAX | – | delivered double-stranded RNA into A549 and MRC-5 cells | could effectively deliver double-stranded nucleic acid into A549 cells | – | 72.5 | – | the efficiency of delivery was much higher than that of RNAiMAX | – |
| CCCCC/C=C\C/C=C\CCCCCCCC(=O)O[C@H](COC(=O)CCCCCCCCCCCCCCCCC)COP(=O)([O-])OCC[N+](C)(C)C [No. 11, trimethyl(2-{[(2R)-2-[(9Z, 12Z)-octadeca-9,12-dienoyloxy]-3-(octadecanoyloxy)propyl-phosphonato]oxy}ethyl) azanium] | – | – | – | – | – | – | – | – | could effectively facilitate nucleic acid molecules of different sequences entry into various cells |

Source: patent US20210100905A1, “APPLICATION OF COMPOUND OR TRADITIONAL CHINESE MEDICINE EXTRACT IN PREPARATION OF NUCLEIC ACID DELIVERY AGENT, AND RELATED PRODUCTS” (INSTITUTE OF BASIC MEDICAL SCIENCES CHINESE ACADEMY OF …, priority 2018, published 2021)
